Measured values reported in patent US9795678B2, “Fast-acting insulin composition comprising a substituted anionic compound and a polyanionic compound” (ADOCIA, priority 2014, dated 2017).

Columns and labels:
[1] = target: T1, hexameric structure of human insulin (Homo sapiens, UniProt P01308); test: Circular dichroism, CD signal of human insulin at 276 nm; type: physicochemical; settings: rhINS 100 IU/ml; Compound 7.3 mg/mL
T1 construct: the insulin is a recombinant human insulin as described in the European pharmacopea and the American pharmacopea
Method: The CD signal at 276 nm is characteristic of the hexameric form of insulin (hexamer signal at about −300°, dimer signal between −200° and −250° and monomer signal below −200°). Loss of the CD signal at 276 nm is thus characteristic of a destabilization of the hexamer into dimers or monomers.

[2] = target: hexameric form R6 of lispro insulin (Homo sapiens, UniProt P01308, K53P/P52K); test: Circular dichroism, CD signal of lispro insulin at 240 nm; settings: lispro insulin 100 IU/mL; substituted anionic compound 7.3 mg/mL; citrate 9.3 mM; EDTA 300 μM
[3] = cited from earlier work

T1 sequence (P01308 25-54 limits assumed): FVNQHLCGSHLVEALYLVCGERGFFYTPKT
T1 sequence (P01308 90-110 limits assumed): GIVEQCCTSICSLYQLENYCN
Chain of hexameric form R6 of lispro insulin (P01308 25-54 P52K/K53P limits assumed): as the sequence (P01308 25-54 limits assumed) above, with P28K, K29P counted along it

| Compound | Impact on the hexameric structure of human insulin (CD signal at 276 nm) [1] | Impact on the R6 form of lispro insulin (CD signal at 240 nm) [2] | delay of action when compared with a rapid insulin analog (dissociation of hexamers into dimers and monomers) ([3]; Brange J., et al., 1999) | time after which a hypoglycemiant effect occurs ([3]; injected subcutaneously, diabetic patients) [min] |
| --- | --- | --- | --- | --- |
| O=C(O)CN(CCN(CC(=O)O)CC(=O)O)CC(=O)O [EDTA] | very pronounced impact | completely destructures | – | – |
| O=C(O)CCC(=O)N[C@@H](Cc1ccccc1)C(=O)O [Substituted anionic compound A1, N-(3-carboxy-1-oxopropyl-)-L-phenylalanine] | no impact | – | – | – |
| O=C(O)CC(O)(CC(=O)O)C(=O)O [citrate] | no impact | no impact | – | – |
| human insulin: human insulin produced by genetic engineering | – | – | up to 20 minutes | 60 |
